Measured values reported in article PMC4657468, “Impaired uptake of conjugated bile acids and hepatitis b virus pres1-binding in na^+-taurocholate cotransporting polypeptide knockout mice” (Hepatology (Baltimore, Md.), 2015).
Where two headings read alike, the source gives them in different places.

Tests used:
[1] = for Serum TCA elimination t½: intravenous bolus 150 μmol TCA/kg with trace tritium-labeled TCA after gallbladder cannulation, one-phase decay, n = 5
Description: Differences between groups were analyzed using a two-tailed Student t test. […] Results were considered statistically significant at P < 0.05.

[2] = molecular target: T1, NTCP (Mus musculus, UniProt O08705); conditions: 1 μM Myrcludex B, 30 min preincubation, WT PMHs, 10 μM TCA, 1 minute
T1 sequence (O08705 1-362): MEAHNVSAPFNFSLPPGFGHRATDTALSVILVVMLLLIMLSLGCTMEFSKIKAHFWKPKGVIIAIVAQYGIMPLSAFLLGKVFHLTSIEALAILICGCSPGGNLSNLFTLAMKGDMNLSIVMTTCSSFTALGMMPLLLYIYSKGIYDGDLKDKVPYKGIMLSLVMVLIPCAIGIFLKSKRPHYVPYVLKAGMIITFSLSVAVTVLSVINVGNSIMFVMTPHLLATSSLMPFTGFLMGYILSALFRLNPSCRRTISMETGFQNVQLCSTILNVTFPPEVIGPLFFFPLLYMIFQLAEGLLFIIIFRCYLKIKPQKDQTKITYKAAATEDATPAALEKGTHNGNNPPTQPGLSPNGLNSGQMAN
Description: (§1) Bars represent the mean ± SEM for two independent experiments, each performed in triplicate. *P < 0.05. (B) Total serum BA concentrations in male and female WT and Slc10a1^−/− (KO) mice. Data are given as mean ± SEM on a ^10log scale for seven to 16 mice in each group, quantified using the total BA assay. Serum composition of (C) conjugated and (D) unconjugated BA species as quantified using high-pressure liquid chromatography. […] Unconjugated BA (U-BA) concentrations are the sum of ω-muricholic acid, α-muricholic acid, β-muricholic acid, cholic acid, UDCA, chenodeoxycholic acid, and DCA. Data are given as mean ± SEM on a ^10log scale for three to six mice in each group. *P < 0.05 (compared to WT levels). […] Conjugated BA (dark gray) and unconjugated BA (light gray) species are shown as a percentage of total, as quantified using high-pressure liquid chromatography. (F) Total serum BA levels in relation to body weights of WT (open dots) and KO (black dots) 8-week-old mice (n – 11–14). […]
(§2) mouse NTCP antibody in block ing buffer f or 1 hour. Af ter washings, the slides were incubated with goat anti-rabbit Alexa 568 IgG. Images were captured with a Leica SP8X […]
(§3) Primary hepatocyte isolation and sandwich culture
(§4) Primary mouse hepatocytes (PMHs) were isolated from wild- type and Slc10a1 -/- mice by a 2-step collagenase perfusion method. […]

[3] = tested on: Slc10a1−/− PMHs; type: cell-based, mouse; conditions: 1 μM Myrcludex B, sodium-dependent as well as sodium-free conditions
Description: as §1, §2, §3, §4

[4] = tested on: NTCP; conditions: at high concentrations; cited from earlier work
Description: (§5) During and after a meal, bile acids (BAs) are released into the small intestine, where they facilitate the absorption of dietary fat and fat-soluble vitamins.[1] The majority of BAs are reabsorbed in the terminal ileum and transported back to the liver through the portal circulation. At the basolateral membranes of the hepatocytes, BAs are taken up from the portal circulation, extruded across the canalicular hepatocyte membrane, and transported to the gallbladder to complete the enterohepatic circulation.[2] Conjugated BAs are transported across the basolateral hepatic membrane through a sodiu ...

[5] = tested on: hepatitis B virus; conditions: cited from earlier work
Description: as §5

| Compound | Serum TCA elimination t½ ([1]; WT mice) [min] | Lethality of the high dose of TCA ([1]; hypercholanemic Slc10a1−/− mice, intravenous bolus 150 μmol TCA/kg, shortly after injection) | Serum TCA elimination t½ ([1]; normocholanemic Slc10a1−/− mice) [min] | Effect on TCA uptake under sodium-free conditions ([2]; NMDG buffer) | Effect on sodium-dependent TCA uptake ([2]; sodium-containing buffer) | Effect on TCA uptake in Slc10a1−/− PMHs [3] | NTCP-mediated BA uptake [4] | Virus entry mediated by NTCP [5] |
| --- | --- | --- | --- | --- | --- | --- | --- | --- |
| C[C@H](CCC(=O)NCCS(=O)(=O)O)[C@H]1CC[C@H]2[C@@H]3[C@H](O)C[C@@H]4C[C@H](O)CC[C@]4(C)[C@H]3C[C@H](O)[C@]12C [TCA, taurocholic acid] | 1.5 | lethal | 5.3 | – | – | – | – | – |
| Myrcludex B | – | – | – | no effect | abrogated sodium-dependent TCA uptake | unaffected | inhibits NTCP-mediated BA uptake at high concentrations | blocked |
